Measurements from the NIST ThermoML archive (doi:10.1016/j.fluid.2011.03.003).
Numbers after ± are expanded uncertainties.

Conditions: Liquid, Closed cell (Static) method

CCC(=O)OC(C)C [1-methylethyl propanoate]
vapor or sublimation pressure (337.66 K): 24.6 ± 0.09 kPa | vapor or sublimation pressure (342.61 K): 29.5 ± 0.11 kPa | vapor or sublimation pressure (347.62 K): 35.68 ± 0.13 kPa | vapor or sublimation pressure (352.67 K): 42.43 ± 0.15 kPa | vapor or sublimation pressure (357.58 K): 50.12 ± 0.18 kPa | vapor or sublimation pressure (362.57 K): 59 ± 0.2 kPa | vapor or sublimation pressure (382.65 K): 101.3 ± 0.3 kPa

CC(C)O [propan-2-ol]
vapor or sublimation pressure (355.15 K): 101.3 ± 1.2 kPa

CCC(=O)O [propanoic acid]
vapor or sublimation pressure (413.58 K): 101.3 ± 1.2 kPa
